As a reminder, the IC50 is the concentration that gives 50% inhibition.

The source of these data is paper PMC12362764, “Novel Cyano‐Artemisinin Dimer ZQJ29 Targets PARP1 to Induce Ferroptosis in Pancreatic Cancer Treatment” (Advanced Science, 2025).

Common to all, as to assay type: cell-based
One experiment relates to PARP1. In words: PARP1 expression (western blot, immunofluorescence). The protocol:
For western blotting analysis, ZQJ29‐treated cells were lysed with RIPA Lysis Buffer (Yeasen, Shanghai, China) containing protease and phosphatase inhibitors (Yeasen, Shanghai, China) on ice. The cell lysates were quantified using the BCA Protein Assay Kit (Beyotime, Shanghai, China). Samples were subjected to SDS‐PAGE and transferred to PVDF membranes (Beyotime, Shanghai, China). The membranes were blocked with 5% nonfat milk in TBST (Buffered Saline with 0.1% Tween 20) for 1 h, followed by overnight incubation at 4 °C with primary antibodies. After washing the membranes three times with TBST, they were incubated with the appropriate secondary antibodies for 2 h at room temperature. Following another three times with TBST, the bands on the membranes were detected using the ECL‐Plus Western Blotting Detection System (Yeasen, Shanghai, China).
PARP1 expression in the cell nucleus was detected using immunofluorescence. The cells were seeded in a 12‐well plate and treated with ZQJ29 (0, 1, 2.5, and 5 µM) after complete adhesion. After a specific duration of treatment, fixation, blocking, and antibody incubation were performed, and images were captured using a Cytation 5‐cell imaging microplate detection system.

A further experiment relates to KP4 cells. Briefly: Cell cycle analysis (PI, flow cytometry), KP4. The following applies: KP4, 24 h. The protocol: PANC‐1 and KP4 cells were placed in 6 cm dishes and exposed to designated concentrations of ZQJ29 (1 µM) for 24 h before trypsinization. After centrifugation, the cells were secured and preserved in ice‐cold 70% ethanol and stored at 4 °C for 24 h. They were then thoroughly washed with PBS multiple times. Next, the fixed cells were incubated in PBS supplemented with RNase and PI solution for 30 min at 37 °C, protected from light exposure. Cell cycle progression was assessed using a flow cytometer. This experimental procedure was systematically conducted in three separate trials, with each trial done in triplicate. Cell cycle kits were obtained from Beyotime (Shanghai, China).

For experiment [1], the system named is PANC-1 and KP4 cells. In words: CCK-8 viability after PARP1 siRNA knockdown. The note with it: PARP1-siRNA transfection, ZQJ29 1 µM, 24 h. How it is done:
(§1) Cell viability was evaluated using the Cell Counting Kit‐8 (Beyotime, Shanghai, China) assay. Cells were seeded in 96‐well plates at a density of 2×10^3 cells to allow for attachment. After treatment with ZQJ29 (0.001, 0.01, 0.1, 10, and 25 µM) for 24, 48, and 72 h, 10 µL of CCK‐8 solution was added to each well and incubated for 1 h. The optical density values were then measured at 450 nm using a multifunctional enzyme‐linked immunosorbent assay reader (Tecan, Spark, Switzerland).
A short interfering RNA (siRNA) targeting human PARP1 was designed and synthesized by GenePharma (Shanghai, China). The sequences of the siRNAs are detailed in Table S5 (Supporting Information). PANC‐1 and KP4 Cells were cultured in six‐well plates until they reached 70% confluence. The cells were then transfected with 50 nM siRNA‐PARP1 or a negative control with Lipofectamine 2000 (Thermo Fisher, USA) for 24 h, according to the manufacturer's instructions.

Experiment [2] concerns PANC-1 and KP4 cells. Briefly: Wound healing (cell migration) assay. The following applies: 0, 1, 2.5, 5 µM; 12 and 24 h. How it is done: PANC‐1 and KP4 cells were cultured in 6‐well plates until complete confluence was reached. A “scratch” or “wound” was made with a sterile 10 µL pipette tip. Following this, the cells were treated with varying concentrations of ZQJ29 (0, 1, 2.5, and 5 µM). After 12 and 24 h, migration activity were observed and captured using an inverted EVOS microscope (Thermo Fisher Scientific, USA). The number of migrated cells were then quantified.

Experiment [3] relates to PANC-1 and KP4 cells. In words: Mitochondrial membrane potential assay (JC-1). The following applies: 24 h. The protocol:
Mitochondrial membrane potential assay kits with JC‐1 (Beyotime, Shanghai, China) were used to measure the alteration of mitochondrial membrane potential (ΔΨm). After being treated with different concentrations of ZQJ29 (0, 1, 2.5, and 5 µM) for 24 h, cells were treated with the positive control reagent CCCP (10 µM) for 30 min at 37 °C. The cells were rinsed once with PBS, and the JC‐1 staining working solution was added for 30 min at 37 °C in the dark. Afterward, the cells were washed twice with 1 × JC‐1 staining buffer. Fluorescent images of the JC‐1‐stained cells were captured with a fluorescence microscope Cytation5 (BioTek, America).

For a further experiment, the system named is PANC-1. Briefly: Label-free proteomics. The following applies: PANC-1, 5 µM ZQJ29 vs DMSO, 24 h. How it is done:
PANC‐1 cells were inoculated into 6‐well plates at ≈2 × 10^5 cells per well and grown for 24 h. After this period, the cells were treated with 5 µM ZQJ29 and an equal volume of solvent (DMSO) for an additional 24 h. Following treatment, the cells were removed from the incubator, and the medium was aspirated and discarded. The cells were washed twice with pre‐cooled PBS, which was then discarded. Next, 30 µL of RIPA lysis buffer containing PMSF (Yeasen, Shanghai, China) was added, and the cells were scraped off quickly using a cell scraper. The cell suspension was collected in 1.5 mL EP tubes and placed on ice. Cells were homogenized using ultrasound (3s × 15 times at 4s intervals), and the mixture was kept on ice for 10–15 min until the foam subsided. The centrifuge was pre‐cooled to 4 °C and centrifuged at 12 000 rpm for 15 min. The supernatant was collected to obtain the protein.
For each group of 3 samples, the protein concentration was determined by the BCA Protein Assay Kit (Beyotime, Shanghai, China). A total of 100 µg of protein was aspirated from each group. Five times the volume of acetone/ethanol/formic acid (50:50:0.1, v/v) was added, and the mixture was thoroughly mixed before allowing the protein to precipitate overnight at −20 °C. […] Finally, the sample was analyzed using instrumental LC‐MS (Agilent, USA).

The next experiment relates to HPDE6-C7. Briefly: CCK-8 cytotoxicity assay, HPDE6-C7 (normal cell line). The note with it: HPDE6c7, 72 h. The protocol: as §1
(In general: Tetrazolium assays rely on reduction of a dye to a coloured formazan, in cell work by metabolically active cells.)

Where only a bound is given, the exact number is not on record here.

In the case of `CC1CCC2C(C)C(OCCN(C#N)CCOC3OC4OC5(C)CCC6C(C)CCC(C3C)C46OO5)OC3OC4(C)CCC1C32OO4` (centres unmarked) [ZQJ29], the “nucleoplasmic PARP1 levels (immunofluorescence)” value in the experiment on PARP1 (PANC-1 and KP4 cells, 0, 1, 2.5, 5 µM, 24 h) is reported as “remarkably reduced”. Besides, in the experiment with PARP1 (PANC-1 and KP4 cells, time- and concentration-dependent), the “PARP1 expression (western blot)” value is recorded as “significantly reduced”. The cell cycle arrest result with KP4 cells is given as “remarkable G2/M phase arrest”. In addition, the “proliferation inhibition by ZQJ29 upon PARP1 knockdown” value in the experiment on PANC-1 and KP4 cells [1] is listed as “markedly reversed”. In the experiment with PANC-1 and KP4 cells [2], the migration abilities result is listed as “impaired”. Besides, the “mitochondrial membrane potential (MMP), JC-1” value in the experiment with PANC-1 and KP4 cells [3] is listed as “decrease in MMP”. Besides, the “PARP1 protein level (proteomics)” value in the experiment on PANC-1 is on record as “prominently down‐regulated”. Further, the IC50 with HPDE6-C7 was > 10 µM.
